According to patent US9422277B2, “Tricyclic substituted thiadiazine dioxide compounds as BACE inhibitors, compositions and their use” (Merck Sharp & Dohme Corp., priority 2012, dated 2016):

Tests used:
[1] = target: purified human autoBACE-2 (Homo sapiens (Human), UniProt Q9Y5Z0); assay: BACE-2 Assay (BACE-HTRF assay); format: biochemical; details: Ki calculated from IC50 using the Cheng-Prusoff equation; read-out: BACE2 Ki
Description: Inhibitor IC50s at purified human autoBACE-2 are determined in a time-resolved endpoint proteolysis assay that measures hydrolysis of the QSY7-[…]-Eu-amide FRET peptide substrate (BACE-HTRF assay). BACE-mediated hydrolysis of this peptide results in an increase in relative fluorescence (RFU) at 620 nm after excitation with 320 nm light Inhibitor compounds, prepared at 3× the desired final concentration in 1×BACE assay buffer (20 mM sodium acetate pH 5.0, 10% glycerol, 0.1% Brij-35) supplemented with 7.5% DMSO are pre-incubated with an equal volume of autoBACE-2 enzyme diluted in 1×BACE assay buffer (final enzyme concentration 1 nM) in black 384-well NUNC plates for 30 minutes at 30° C. […] DMSO is present at 5% final concentration in the assay. Following laser excitation of sample wells at 320 nm, the fluorescence signal at 620 nm is collected for 400 ms following a 50 μs delay on a RUBYstar HTRF plate reader (BMG Labtechnologies). Raw RFU data is normalized to maximum (1.0 nM BACE/DMSO) and minimum (no enzyme/DMSO) RFU values. IC50s are determined by nonlinear regression analysis (sigmoidal dose response, variable slope) of percent inhibition data with minimum and maximum values set to 0 and 100 percent respectively. Similar IC50s are obtained when using raw RFU data. The Ki values are calculated from the IC50 using the Cheng-Prusoff equation.

human P-glycoprotein = human P-glycoprotein (Homo sapiens (Human), UniProt P08183); assay: Efflux by human P-glycoprotein (Pgp Mdr1 efflux ratio); format: in vitro ADME
Sequence of human P-glycoprotein (P08183 whole entry, the tested form may be a part): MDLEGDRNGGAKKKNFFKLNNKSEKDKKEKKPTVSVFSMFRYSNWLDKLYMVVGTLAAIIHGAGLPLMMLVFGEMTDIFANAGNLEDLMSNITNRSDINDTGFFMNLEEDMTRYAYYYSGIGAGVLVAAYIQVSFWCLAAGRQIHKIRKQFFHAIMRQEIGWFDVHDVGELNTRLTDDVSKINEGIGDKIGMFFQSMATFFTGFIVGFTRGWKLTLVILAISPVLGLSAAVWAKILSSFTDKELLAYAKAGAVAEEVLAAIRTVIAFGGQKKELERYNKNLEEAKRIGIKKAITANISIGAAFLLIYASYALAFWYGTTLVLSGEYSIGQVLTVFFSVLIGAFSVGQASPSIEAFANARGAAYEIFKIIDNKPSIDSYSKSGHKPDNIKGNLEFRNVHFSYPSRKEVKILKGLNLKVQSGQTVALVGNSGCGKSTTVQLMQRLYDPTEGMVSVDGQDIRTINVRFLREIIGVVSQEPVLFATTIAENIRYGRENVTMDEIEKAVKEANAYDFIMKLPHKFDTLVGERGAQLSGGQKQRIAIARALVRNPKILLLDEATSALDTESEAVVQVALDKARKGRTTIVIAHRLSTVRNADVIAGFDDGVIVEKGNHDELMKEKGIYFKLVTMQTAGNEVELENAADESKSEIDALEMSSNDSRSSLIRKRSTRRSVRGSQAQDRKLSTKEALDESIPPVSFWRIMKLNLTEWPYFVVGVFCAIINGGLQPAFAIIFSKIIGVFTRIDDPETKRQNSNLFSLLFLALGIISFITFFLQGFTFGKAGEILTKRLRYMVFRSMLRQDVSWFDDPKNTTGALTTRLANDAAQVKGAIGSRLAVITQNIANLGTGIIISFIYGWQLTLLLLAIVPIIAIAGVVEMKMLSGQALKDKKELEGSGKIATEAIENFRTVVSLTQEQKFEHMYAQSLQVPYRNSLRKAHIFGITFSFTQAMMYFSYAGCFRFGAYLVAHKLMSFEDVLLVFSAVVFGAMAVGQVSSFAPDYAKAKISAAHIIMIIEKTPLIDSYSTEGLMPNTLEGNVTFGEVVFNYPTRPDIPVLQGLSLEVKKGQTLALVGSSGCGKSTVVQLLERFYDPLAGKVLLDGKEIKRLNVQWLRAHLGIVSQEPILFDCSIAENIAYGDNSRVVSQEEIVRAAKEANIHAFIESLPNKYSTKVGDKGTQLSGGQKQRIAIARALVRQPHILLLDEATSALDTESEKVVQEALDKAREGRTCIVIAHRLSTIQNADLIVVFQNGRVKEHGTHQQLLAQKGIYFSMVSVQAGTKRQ

[2] = target: soluble human BACE1 catalytic domain (Homo sapiens (Human), UniProt P56817); assay: BACE1 HTRF FRET Assay; format: biochemical; details: Ki calculated from IC50 using the Cheng-Prusoff equation
Sequence of soluble human BACE1 catalytic domain (P56817 75-416): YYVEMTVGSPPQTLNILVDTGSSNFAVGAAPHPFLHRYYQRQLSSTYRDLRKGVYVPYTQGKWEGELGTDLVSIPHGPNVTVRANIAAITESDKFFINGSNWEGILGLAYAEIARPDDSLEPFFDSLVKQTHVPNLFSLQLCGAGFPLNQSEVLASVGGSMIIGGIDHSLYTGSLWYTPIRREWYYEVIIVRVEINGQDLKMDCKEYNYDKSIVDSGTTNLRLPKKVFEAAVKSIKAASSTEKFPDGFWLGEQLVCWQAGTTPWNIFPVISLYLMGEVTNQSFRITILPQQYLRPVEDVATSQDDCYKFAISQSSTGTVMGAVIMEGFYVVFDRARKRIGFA
Excerpt: A homogeneous time-resolved FRET assay can be used to determine IC50 values for inhibitors of the soluble human BACE1 catalytic domain. This assay monitors the increase of 620 nm fluorescence that resulted from BACE1 cleavage of an APPswedish APP^swe mutant peptide FRET substrate (QSY7-[…]-Europium-amide). This substrate contains an N-terminal QSY7 moiety that serves as a quencher of the C-terminal Europium fluorophore (620 nm Em). In the absence of enzyme activity, 620 nm fluorescence is low in the assay and increased linearly over 3 hours in the presence of uninhibited BACE1 enzyme Inhibition of BACE1 cleavage of the QSY7-APP^swe-Eu substrate by inhibitors is manifested as a suppression of 620 nm fluorescence.
Reactions are initiated by addition of 10 μl of 600 nM QSY7-APP^swe-Eu substrate (200 nM final) to give a final reaction volume of 30 μl in a 384 well Nunc HTRF plate. The reactions are incubated at 30° C. for 1.5 hours. The 620 nm fluorescence is then read on a Rubystar HTRF plate reader (BMG Labtechnologies) using a 50 millisecond delay followed by a 400 millisecond acquisition time window Inhibitor IC50 values are derived from non-linear regression analysis of concentration response curves.

Sequence of purified human autoBACE-2 (Q9Y5Z0 63-473 limits assumed): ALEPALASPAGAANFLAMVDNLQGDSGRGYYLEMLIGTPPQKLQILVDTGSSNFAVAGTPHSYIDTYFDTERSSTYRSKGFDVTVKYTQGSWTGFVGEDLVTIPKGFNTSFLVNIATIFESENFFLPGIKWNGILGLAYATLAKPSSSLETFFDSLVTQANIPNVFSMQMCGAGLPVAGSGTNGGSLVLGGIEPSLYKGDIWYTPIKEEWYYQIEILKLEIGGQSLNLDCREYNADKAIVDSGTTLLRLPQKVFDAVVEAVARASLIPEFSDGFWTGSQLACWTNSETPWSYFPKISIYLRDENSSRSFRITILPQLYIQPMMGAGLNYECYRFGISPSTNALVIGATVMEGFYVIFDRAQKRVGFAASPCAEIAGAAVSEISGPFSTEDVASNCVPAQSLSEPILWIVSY

CN1C(=N)N[C@](C)(c2sc(-c3nnc(-c4ccc(F)cc4)o3)cc2Cl)CS1(=O)=O [Example 22]
Ki [1]: 13 nM | Pgp Mdr1 ER (human P-glycoprotein): 1.4 | Ki [2]: 65.5 nM

CN1C(=N)N[C@](C)(c2sc(-c3nnc(-c4ccc(Cl)cc4)o3)cc2F)CS1(=O)=O [Example 19]
Ki [1]: 13.6 nM | Pgp Mdr1 ER (human P-glycoprotein): 1.0 | Ki [2]: 31.9 nM

CN1C(=N)N[C@](C)(c2sc(-c3nnc(-c4cc5ccccn5n4)o3)cc2Cl)CS1(=O)=O [Example 30]
Ki [1]: 96.8 nM | Ki [2]: 260 nM

CN1C(=N)N[C@](C)(c2cc(-c3ccc(-c4nnco4)[nH]3)ccc2F)CS1(=O)=O [Example 11]
Ki [1]: 172 nM | Ki [2]: 45 nM

CN1C(=N)N[C@](C)(c2sc(-c3nnc(-c4nccs4)o3)cc2Cl)CS1(=O)=O [Example 32]
Ki [1]: 44.3 nM | Ki [2]: 402 nM

CN1C(=N)N[C@](C)(c2sc(-c3nnc(-c4cncs4)o3)cc2Cl)CS1(=O)=O [Example 33]
Ki [1]: 347 nM | Ki [2]: 863 nM

CN1C(=N)N[C@](C)(c2sc(-c3nnc(-c4ccccc4)o3)cc2Cl)CS1(=O)=O [Example 20]
Ki [1]: 7.76 nM | Pgp Mdr1 ER (human P-glycoprotein): 1.3 | Ki [2]: 106 nM

CC(C)Oc1ccc(-c2nnc(-c3cc(Cl)c([C@]4(C)CS(=O)(=O)N(C)C(=N)N4)s3)o2)cc1 [Example 60]
Ki [1]: 533 nM | Ki [2]: 205 nM

CN1C(=N)N[C@](C)(c2sc(-c3nnc(-c4ccc(C5CCC(F)(F)C5)cc4)o3)cc2Cl)CS1(=O)=O (stereo partly shown) [Example 67]
Ki [1]: 1870 nM | Ki [2]: 1110 nM

CN1C(=N)N[C@](C)(c2sc3c(-c4coc(-c5ccc(F)cc5)n4)cccc3c2F)CS1(=O)=O [Example 82]
Ki [1]: 2940 nM | Ki [2]: 4890 nM

CN1C(=N)N[C@](C)(c2sc(-c3ccc(C4=NCCO4)[nH]3)cc2Cl)CS1(=O)=O [Example 6]
Ki [1]: 69 nM | Ki [2]: 270 nM

CN1C(=N)N[C@](C)(c2sc(-c3nnc(-c4cncnc4)o3)cc2Cl)CS1(=O)=O [Example 39]
Ki [1]: 1660 nM | Ki [2]: 5400 nM

CN1C(=N)N[C@](C)(c2sc(-c3nnc(-c4cccc(C#N)c4)o3)cc2Cl)CS1(=O)=O [Example 31]
Ki [1]: 1240 nM | Ki [2]: 1210 nM

CN1C(=N)N[C@](C)(c2sc(-c3[nH]cnc3-c3ccccc3)cc2Cl)CS1(=O)=O [Example 4]
Ki [1]: 3120 nM | Ki [2]: 9030 nM

CN1C(=N)N[C@](C)(c2sc(-c3nnc(-c4ccc(OC(F)F)cc4)o3)cc2Cl)CS1(=O)=O [Example 79]
Ki [1]: 132 nM | Ki [2]: 51.6 nM

CN1C(=N)N[C@](C)(c2sc(-c3nnc(-c4ccc(C(F)(F)F)cc4)o3)cc2Cl)CS1(=O)=O [Example 18]
Ki [1]: 155 nM | Pgp Mdr1 ER (human P-glycoprotein): 0.7 | Ki [2]: 58.9 nM

CN1C(=N)N[C@](C)(c2sc(-c3nnc(-c4cnco4)o3)cc2Cl)CS1(=O)=O [Example 40]
Ki [1]: 142 nM | Ki [2]: 250 nM

CN1C(=N)N[C@](C)(c2sc3c(-c4cnn(-c5ccccc5)c4)cccc3c2F)CS1(=O)=O [Example 81]
Ki [1]: 337 nM | Ki [2]: 1460 nM

CC(C)c1ccc(-c2nnc(-c3cc(Cl)c([C@]4(C)CS(=O)(=O)N(C)C(=N)N4)s3)o2)cc1 [Example 56]
Ki [1]: 889 nM | Ki [2]: 359 nM

CN1C(=N)N[C@](C)(c2sc(-c3nnc(-c4ccc(Cl)cc4)o3)cc2Cl)CS1(=O)=O [Example 16]
Ki [1]: 13.8 nM | Pgp Mdr1 ER (human P-glycoprotein): 1.1 | Ki [2]: 28.8 nM

CCCOc1ccc(-c2nnc(-c3cc(Cl)c([C@]4(C)CS(=O)(=O)N(C)C(=N)N4)s3)o2)cc1 [Example 62]
Ki [1]: 313 nM | Ki [2]: 84.2 nM

COc1ccc(-c2nnc(-c3cc(Cl)c([C@]4(C)CS(=O)(=O)N(C)C(=N)N4)s3)o2)cc1 [Example 17]
Ki [1]: 34.6 nM | Pgp Mdr1 ER (human P-glycoprotein): 1.0 | Ki [2]: 38.6 nM

CN1C(=N)N[C@](C)(c2cc(-c3nnc(C4Cc5ccccc5C4)o3)ccc2F)CS1(=O)=O [Example 52]
Ki [1]: 2680 nM | Ki [2]: 7690 nM

CN1C(=N)N[C@](C)(c2sc(-c3cn(-c4ccccc4)nn3)cc2Cl)CS1(=O)=O [Example 5]
Ki [1]: 281 nM | Ki [2]: 1980 nM

CN1C(=N)N[C@](C)(c2sc(-c3nnc(-c4cccnc4)o3)cc2Cl)CS1(=O)=O [Example 29]
Ki [1]: 698 nM | Ki [2]: 1050 nM

CN1C(=N)N[C@](C)(c2sc(-c3nnc(-c4ccc(-n5cnnn5)cc4)o3)cc2Cl)CS1(=O)=O [Example 70]
Ki [1]: 1350 nM | Ki [2]: 180 nM

CN1C(=N)N[C@](C)(c2sc(-c3nnc(-c4ccc(N5CCCCC5)cc4)o3)cc2Cl)CS1(=O)=O [Example 68]
Ki [1]: 2990 nM | Ki [2]: 5360 nM

CN1C(=N)N[C@](C)(c2cc(-c3nnc(-c4ccc(Cl)cc4)o3)ccc2F)CS1(=O)=O [Example 25]
Ki [1]: 595 nM | Ki [2]: 2590 nM

CN1C(=N)N[C@](C)(c2sc(-c3nnc(C4CC4)o3)cc2Cl)CS1(=O)=O [Example 48]
Ki [1]: 116 nM | Ki [2]: 882 nM

CN1C(=N)N[C@](C)(c2sc(-c3nnc(-c4ccc(OCc5ccccc5)cc4)o3)cc2Cl)CS1(=O)=O [Example 63]
Ki [1]: 527 nM | Ki [2]: 227 nM

CN1C(=N)N[C@](C)(c2cc(-c3nnc(-c4ncco4)o3)ccc2F)CS1(=O)=O [Example 53]
Ki [1]: 186 nM | Ki [2]: 3420 nM

CN1C(=N)N[C@](C)(c2cc(-c3nnc(-c4ccccc4)o3)ccc2F)CS1(=O)=O [Example 24]
Ki [1]: 1490 nM | Ki [2]: 9870 nM
